Experimental data from patent US20050153381A1, “Immunocapture of mitochondrial protein complexes” (priority 2002, published 2005).

How the values were obtained:
[1] = tested on: human mitochondrial F1/F0 ATPase (Complex V); experiment: ATPase activity of immunocaptured F1/F0 ATPase, 96-well; type: biochemical
Protocol: Solubilization. Samples were thawed and placed in 25 mM HEPES pH 7.5 (to dissociate F1F0/IF1 interactions) or 10 mM […] (Anatrace) pH 6.5 (to retain F1F0/IF1 interactions), containing 0.4% (w/v) […], and the protease inhibitors leupeptin (0.5 μg/ml), pepstatin (0.5 μg/ml) and PMSF (1 mM). Mitochondria were solubilized at 5 mg/ml and whole cells were solubilized at 2×10^7 cells/ml. Samples were mixed well and then kept on ice for 30 minutes with occasional agitation. Insoluble material was then removed by centrifugation at 16,000×g for 20 minutes at 4° C.
Immunocapture. Assays were run in 96-well plates (Falcon Probind™) using 100 μl/well. […] To control for non-specific adsorption of ATPase, a non-specific mouse monoclonal antibody was used as a null capture mAb. Wells were then loaded with solubilized test samples diluted in TBS with 2.5% BSA, incubated for 2 hours at room temperature and then washed 4 times with TBS.
ATPase activity. ATPase reaction buffer (25 mM HEPES pH 7.5 or 10 mM MOPS pH 6.5, with 25 mM KCl, 5 mM MgCl2, 5 mM KCN and 2 mM ATP) was added at 100 μl/well and incubated for 3 hours at 37° C. The reaction was stopped and free Pi generated by ATP hydrolysis was detected essentially as described by Walker et al. (Meth. Enzymol., 260: 163-190, 1995) by addition of 0.5% ammonium molybendate in 0.7 M H2SO4 (42 μl/well) followed by 10% ascorbic acid (4 μl/well). After incubation for 30 minutes at room temperature to allow color development, absorbance was measured at 690 nm.
IF1 Stripping Conditions. IF1 was dissociated from previously immunocaptured IF1/F1F0 complexes by exposure to IF1 stripping buffer (30 mM Tris-sulfate pH 8, 250 mM KCl, 2 mM EDTA, 75 mM sucrose) for 30 minutes at 37° C. (Van Raaij et al., Biochem. 35: 15618-15625, 1996). The wells were then washed with either a pH 7.5 wash buffer (TBS) or a pH 6.5 wash buffer (10 mM MOPS pH 6.5, 150 mM NaCl and 1 mM MgCl2), and ATPase activity measured at either pH 7.5 or pH 6.5 as described above.
IF1 Addition Conditions. Recombinant human IF1 was obtained by PCR-based amplification of the appropriate gene from a human heart CDNA library (Clontech), cloning into pET15b (Novagen), transformation of E. coli and overexpression and purification of the His-tagged protein on a Ni column by standard protocols (Novagen). Isolated protein was diluted in pH 6.5 wash buffer (as described above) containing 1 mM ATP and incubated with previously immunocaptured F1F0. The wells were then washed with pH 6.5 wash buffer and ATPase activity measured at pH 6.5 as described above.

[2] = target: T1, Complex V (Homo sapiens, UniProt P00846+P05496+P06576+P25705); experiment: Complex V activity dipstick; type: biochemical; conditions: normal fibroblast Complex V (FIG. 30)
T1 construct: tissue Analytical Biological Services, Inc; host or cells: human heart ventricle mitochondria (A10, A12); MRC5, Rho0-MRC5 and GM00028 fibroblasts (A12); normal and Rho0 human fibroblast mitochondria (A19)
Protocol: Mitochondria (human heart, human fibroblast or bovine heart) were solubilized at 5 mg/ml mitochondrial protein, 1% wt/vol lauryl maltoside, 100 mM NaCl, 25 mM HEPES pH 7.5, and the protease inhibitors pepstatin (0.5 μg/ml), leupeptin (0.5 μg/ml) and PMSF (1 mM). The samples were incubated at 4° C. for 30 minutes and the insoluble material removed by centrifugation at 16,000×g for 20 minutes. Solubilized mitochondria were diluted to the desired concentration in 150 mM NaCl, 50 mM Tris-HCl, pH 7.5 containing 2.5% bovine serum albumin as a blocking and stabilization agent.
After the entire sample wicked up into the nitrocellulose (approximately 15 minutes), the stick was transferred to a second well containing 50 μl of wash buffer (150 mM NaCl, 50 mM Tris-HCl, pH 7.5), which was allowed to wick up the stick (approximately 15 minutes). The absorbent pad was then removed and the entire dipstick incubated in a tube containing 3 ml wash buffer for approximately 15 minutes. The washed dipstick (with the immunocaptured OXPHOS complex of interest) was then transferred to the appropriate enzyme reaction buffer to reveal enzyme activity as described below. […]

## CC[C@H]1/C=C/C=C/C[C@@H](C)[C@H](O)[C@@](C)(O)C(=O)[C@@H](C)[C@H](O)[C@@H](C)C(=O)[C@@H](C)[C@H](O)[C@@H](C)/C=C/C(=O)O[C@@H]2[C@H](C)[C@H](CC1)O[C@]1(CC[C@H](C)[C@H](C[C@@H](C)O)O1)[C@H]2C [oligomycin]
[1]; Rho0 fibroblasts, 1.5 μg/ml oligomycin (FIG. 8)
  oligomycin sensitivity of F1/F0 ATPase immunocaptured from Rho0 cell mitochondria: oligomycin insensitive
[1]; cultured fibroblast extract, 1.5 μg/ml oligomycin (FIG. 7B)
  oligomycin sensitivity of immunocaptured enzyme: more than 90%
[1]; human heart mitochondria, 1.5 μg/ml oligomycin (FIG. 5)
  inhibition of ATPase activity of immunocaptured human F1/F0 ATPase: more than 90%
[1]; mAb 12F4AD8AF8 directly adsorbed to the plate
  inhibition of captured F1/F0 ATPase: could not be inhibited
[1]; mAb 12F4AD8AF8 oriented on a layer of goat-anti-mouse IgG
  inhibition of captured F1/F0 ATPase: completely inhibited
[2]
  effect on Complex V activity dipstick signal: reduced signal
